Measurements: PubChem BioAssay AID330 (DTP/NCI, 2004)
Values joined by “and” are separate entries in the source; they are usually repeats but may differ in a detail not shown here. Equal values may be shown once. Toxic doses and inconclusive results are not listed.

Test system: P388 leukemia ip, CD2F1 mice, survival T/C
Experiment: NCI In Vivo Anticancer Drug Screen. Data for tumor model P388 Leukemia (intraperitoneal) in CD2F1 (CDF1) mice
Conditions: endpoint: median survival time, higher = longer survival
Summary of the method: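 Mice carrying the transplanted tumor received test compound or vehicle. Survival was recorded in each group, and the value is the treated-group measurement divided by that of the vehicle-treated control group.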

[1] = dose: 50.0 mg/kg/injection, schedule: Q01DX005 (ip), vehicle: saline with Tween-80
[2] = dose: 100.0 mg/kg/injection, schedule: Q01DX005 (ip), vehicle: saline with Tween-80
[3] = dose: 25.0 mg/kg/injection, schedule: Q01DX009 (ip), vehicle: other
[4] = dose: 50.0 mg/kg/injection, schedule: Q01DX009 (ip), vehicle: other
[5] = dose: 100.0 mg/kg/injection, schedule: Q01DX009 (ip), vehicle: other
[6] = dose: 200.0 mg/kg/injection, schedule: Q01DX009 (ip), vehicle: other
[7] = dose: 50.0 mg/kg/injection, schedule: Q01DX009 (ip), vehicle: Klucel (hydroxypropylcellulose) (HPC)
[8] = dose: 100.0 mg/kg/injection, schedule: Q01DX009 (ip), vehicle: Klucel (hydroxypropylcellulose) (HPC)
[9] = dose: 200.0 mg/kg/injection, schedule: Q01DX009 (ip), vehicle: Klucel (hydroxypropylcellulose) (HPC)

**Q.** What does the source list for `Cc1ccc(S(=O)c2ccccc2C(O)(C(F)(F)F)C(F)(F)F)cc1` (configuration not stated)?
**A.** T/C (dose: 50.0 mg/kg/injection, schedule: Q01DX005 (ip), vehicle: Klucel (hydroxypropylcellulose) (HPC)): 99 % of control; T/C (dose: 100.0 mg/kg/injection, schedule: Q01DX005 (ip), vehicle: Klucel (hydroxypropylcellulose) (HPC)): 99 % of control; T/C (dose: 200.0 mg/kg/injection, schedule: Q01DX005 (ip), vehicle: Klucel (hydroxypropylcellulose) (HPC)): 92 % of control

**Q.** How did the T/C [1] turn out when `C/C(=N\NC(=S)N1CCC(C2CCN(C(=S)N/N=C(\C)c3ccccn3)CC2)CC1)c1ccccn1` was run?
**A.** 112 % of control and 97 % of control

**Q.** And the T/C [2]?
**A.** 114 % of control and 122 % of control

**Q.** What about the T/C (dose: 200.0 mg/kg/injection, schedule: Q01DX005 (ip), vehicle: saline with Tween-80) of the same compound?
**A.** 118 % of control

**Q.** And the T/C (dose: 400.0 mg/kg/injection, schedule: Q01DX005 (ip), vehicle: saline with Tween-80)?
**A.** 120 % of control

**Q.** For `O=C(C/[N+]([O-])=C/c1ccccc1)OCc1ccccc1`, which T/C (dose: 12.5 mg/kg/injection, schedule: Q01DX009 (ip), vehicle: other) is on record?
**A.** 112 % of control

**Q.** What about the T/C [3] of the same compound?
**A.** 112 % of control

**Q.** What about the T/C [4] of the same compound?
**A.** 95 % of control

**Q.** And the T/C [5]?
**A.** 88 % of control

**Q.** And the T/C [6]?
**A.** 104 % of control

**Q.** For `CCCCCC12OCC(C)(C)N1O2` (configuration not stated), which T/C (dose: 60.0 mg/kg/injection, schedule: Q01DX005 (ip), vehicle: saline) is on record?
**A.** 100 % of control

**Q.** What about the T/C (dose: 120.0 mg/kg/injection, schedule: Q01DX005 (ip), vehicle: saline) of the same compound?
**A.** 109 % of control

**Q.** What about the T/C (dose: 240.0 mg/kg/injection, schedule: Q01DX005 (ip), vehicle: saline) of the same compound?
**A.** 103 % of control

**Q.** `CC(C)C1(C(=O)NNC(=O)CCCc2ccc(N(CCCl)CCCl)cc2)OC2(O)CCCCCN2C1=O` (configuration not stated) was tested. Which T/C (dose: 6.25 mg/kg/injection, schedule: Q04DX003 (ip), vehicle: Klucel (hydroxypropylcellulose) (HPC)) did it give?
**A.** 109 % of control

**Q.** And the T/C (dose: 12.5 mg/kg/injection, schedule: Q04DX003 (ip), vehicle: Klucel (hydroxypropylcellulose) (HPC))?
**A.** 121 % of control

**Q.** And the T/C (dose: 100.0 mg/kg/injection, schedule: Q04DX003 (ip), vehicle: Klucel (hydroxypropylcellulose) (HPC))?
**A.** 184 % of control

**Q.** How did the T/C (dose: 25.0 mg/kg/injection, schedule: Q01DX009 (ip), vehicle: Klucel (hydroxypropylcellulose) (HPC)) turn out when `CC1=CC2(C)C3C(=O)NC(=O)C3C1C1(C)C3C(=O)NC(=O)C3C21` (configuration not stated) was run?
**A.** 103 % of control

**Q.** What about the T/C [7] of the same compound?
**A.** 108 % of control

**Q.** And the T/C [8]?
**A.** 109 % of control

**Q.** And the T/C [9]?
**A.** 97 % of control

**Q.** With `Cc1ccc(C)n1-c1ccsc1C(=O)NNC(=O)C(Cl)Cl` as the compound, how does the T/C (dose: 7.5 mg/kg/injection, schedule: Q01DX005 (ip), vehicle: Klucel (hydroxypropylcellulose) (HPC)) read?
**A.** 100 % of control

**Q.** And the T/C (dose: 15.0 mg/kg/injection, schedule: Q01DX005 (ip), vehicle: Klucel (hydroxypropylcellulose) (HPC))?
**A.** 106 % of control

**Q.** What about the T/C (dose: 30.0 mg/kg/injection, schedule: Q01DX005 (ip), vehicle: Klucel (hydroxypropylcellulose) (HPC)) of the same compound?
**A.** 99 % of control

**Q.** Which T/C (dose: 3.75 mg/kg/injection, schedule: Q01DX005 (ip), vehicle: saline) does the source give for `CN(C)CCN(C)CC(C)(C)C(=O)/C=C/c1ccc(Cl)c(Cl)c1` here?
**A.** 102 % of control and 107 % of control

**Q.** And the T/C (dose: 7.5 mg/kg/injection, schedule: Q01DX005 (ip), vehicle: saline)?
**A.** 98 % of control and 95 % of control

**Q.** What about the T/C (dose: 15.0 mg/kg/injection, schedule: Q01DX005 (ip), vehicle: saline) of the same compound?
**A.** 99 % of control and 100 % of control and 97 % of control

**Q.** And the T/C (dose: 30.0 mg/kg/injection, schedule: Q01DX005 (ip), vehicle: saline)?
**A.** 101 % of control and 102 % of control

**Q.** What does the source list for `N#CC1=C(C#N)SCCCS1`?
**A.** T/C (dose: 50.0 mg/kg/injection, schedule: Q01DX009 (ip), vehicle: saline): 100 % of control; T/C (dose: 100.0 mg/kg/injection, schedule: Q01DX009 (ip), vehicle: saline): 100 % of control; T/C (dose: 200.0 mg/kg/injection, schedule: Q01DX009 (ip), vehicle: saline): 99 % of control

**Q.** Which results are given for `COc1ccc(OC)c(CC(CC(=O)O)C(C)=O)c1` (configuration not stated)?
**A.** T/C [3]: 97 % of control; T/C [4]: 100 % of control; T/C [5]: 100 % of control; T/C [6]: 101 % of control; T/C (dose: 400.0 mg/kg/injection, schedule: Q01DX009 (ip), vehicle: other): 108 % of control

**Q.** What does the source list for `O=c1cc(-c2ccccc2)nc(Sc2ccc([N+](=O)[O-])cc2[N+](=O)[O-])[nH]1`?
**A.** T/C [7]: 98 % of control; T/C [8]: 98 % of control; T/C [9]: 93 % of control

**Q.** Which results are given for `COC(=O)C1=NOC2C(=O)N(c3ccccc3)C(=O)C12` (configuration not stated)?
**A.** T/C [1]: 96 % of control; T/C [2]: 101 % of control
